The text below walks through data of patent US20120295838A1, “Selective poly-substituted glycine antibiotics and related compositions” (priority 2008, published 2012).

Numbered stars: 1 amine (or outer) side, 2 acyl side, 3 side chain; on linkers, the order of the positions; unused ones are H or OH. Square brackets hold non-standard residues; d marks the D form. Peptide text beside a SMILES is read from it. X1 = CC(C)[C@H](C)N(CC(=O)[*:2])[*:1]; Nspe = C[C@H](NCC(=O)O)c1ccccc1; Nlys = NCCCCNCC(=O)O

The test system of one data set is E. coli ATCC 35218. In kind it is cell-based. The settings on record: ATCC 35218. On the procedure:
Whereas the preceding generation of molecules was designed to elucidate structure function relationships of specific molecular parameters (chirality, length, hydrophobicity, etc.), another generation compounds were designed explicitly to explore effects on selectivity. Antimicrobial activity of these compounds was tested against bacterial strains E. coli (ATTC 35218) and B. subtilis (ATTC 6633) in cation-adjusted MHB using the microdilution protocols previously described. The sequences, antimicrobial activities, hemolytic activities, and metabolic inhibitory concentrations against NIH 3T3 mouse fibroblast cells are summarized in Table 3 and the rationale of their design is described below.
Screening antibacterial assays. MICs were determined in 96-well microtiter plates in accordance with CLSI M7-A6 protocols. Peptoid solutions with 50 μL total volume were prepared using 2:1 serial dilutions. 50 i—tL of bacteria inoculum (1×10^6 CFU/mL) prepared in cation-adjusted Mueller-Hinton broth (CAMHB) was added to test wells. Control wells contained 100 μL MHB (no growth) or 50 μL inoculums with 50 μL MHB with no peptoid. […] Reported values were reproducible over three experiments, each containing two parallel trials.
Antibacterial Assays for Compositions. MICs were determined according to CLSI M7-A6 protocols in a 96-well microtiter plate. In test wells, 50 μL bacterial inoculum (1×10^6 CFU/ml) in cation-adjusted Mueller-Hinton broth (CAMHB) was added to 50 μL peptoid solution in CAMHB (prepared by 1:2 serial dilutions). Positive controls contained 50 μL inoculum and 50 μL CAMHB without peptoid. […] MIC values reported were reproducible between three independent experimental replicates, each consisting of two parallel trials.

The nature of another data set: MTS assay, NIH 3T3 cells. It is filed as cell-based, mouse. The following applies: mouse, NIH 3T3 fibroblast cells. The protocol: The potencies of all compounds were determined against representative Gram-negative (E. coli ATCC 35218) and Gram-positive (B. subtilis ATCC 6633) biosafety level 1 (BSL1) organisms. In addition to hemolytic activity, the conventional measure of toxicity to mammalian cells, the effect of each ampetoid on NIH 3T3 mouse fibroblast cells was determined using the MTS tetrazolium salt-based colorimetric assay. While hemolysis measures the degree to which erythrocytes are lysed, the MTS assay indirectly quantifies the extent to which cellular metabolic activity is inhibited.
MTS assays. NIH/3T3 cells (ATCC Corporation) cultured at 37° C. and 5% CO2 in complete Dulbecco's modified eagle's media (CDMEM) supplemented with 1% sodium pyruvate, 1% penicillin-streptomycin, 1.5 g/L NaHCO3, and 10% fetal bovine serum. Cells were seeded at a density of 5,000 cells per well for NIH/3T3 cells in 96-well plates (100 μl total volume). A peptoid solution plate (100 μL total volume per well) was prepared by serial dilution of aqueous peptoid stock solution in Hank's balanced salt solution (HBSS) media. The day-old cell monolayers were washed with HBSS and media was replaced with 100 μL HBSS. The contents of the peptoid solution plate were transferred onto corresponding wells of the cell monolayer plate, and 40 μL MTS reagent (Promega, Inc.) was added to each well. After incubating for 3 hours at 37° C., absorbance at 490 nm was determined. […] The average of six replicates is reported.

The subject of another data set is human erythrocytes. The data set is described as follows: Hemolysis assay. In kind it is cell-based. On the procedure:
(§1) Hemolysis assays. Erythrocytes were isolated from freshly drawn, heparanized human blood and resuspended to 20 vol % in PBS (pH 7.4). In a 96-well microtiter plate, 100 μL erythrocyte suspension was added to 100 uL peptoid solution in PBS (prepared by 1:2 serial dilutions), or 100 μL PBS in the case of negative controls. 100% hemolysis wells contained 100 μL, blood cell suspension with 100 μL 0.2 vol % Triton X-100. The plate was incubated for 1 h at 37° C., then each well was diluted with 1504 PBS. The plate was then centrifuged at 1200 g for 15 min, 100 μL of the supernatant from each well transferred to a fresh microtiter plate, and A350 measured.
Hemolysis assays. Erythrocytes were isolated from freshly drawn, heparanized human blood and resuspended in PBS (pH 7.4) to make a 20% volume suspension. Peptoid solutions were prepared by serial dilution (2:1) in a 96-well microtiter plate. For test wells, 100 μLL of erythrocyte suspension was added to 100 μL of peptoid solution in PBS; PBS without peptoid was used as the negative control and 0.2 vol % Triton X-100 as the positive control that indicates 100% hemolysis. After 1 hour incubation at 37° C., each well was diluted with 150 μL PBS. Plates were then centrifuged at 1,200×g for 15 minutes to pellet the cells. 30 μL of the supernatant from each well were transferred to the corresponding well of a second 96-well plate that contains 70 μL PBS.
as §1, with “assays for Compositions.” for “assays.”, “100” for “100 uL”, “μL” for “μL,”, “150 μL” for “1504”, “1200g” for “1200 g”

`CC(C)[C@H](C)N(CC(=O)N(CCCCN)CC(=O)N(CC(=O)N(CC(=O)N(CCCCN)CC(=O)N(CC(=O)N(CC(=O)N(CCCCN)CC(=O)N(CC(=O)N(CC(N)=O)[C@@H](C)c1ccccc1)[C@@H](C)c1ccccc1)[C@@H](C)C(C)C)[C@@H](C)C(C)C)[C@@H](C)c1ccccc1)[C@@H](C)c1ccccc1)C(=O)CN(C(=O)CNCCCCN)[C@@H](C)C(C)C` [1-Nsdp2,3,8,9, H-(Nlys-Nsdp-Nsdp-Nlys-Nspe-Nspe)2-NH2] (H-[Nlys][X1][X1][Nlys][Nspe][Nspe][Nlys][X1][X1][Nlys][Nspe][Nspe]-NH2): the “E. coli MIC” value in the data set on E. coli ATCC 35218 worked out at 12.5 µM. The CC50 at 3 h in the data set “MTS assay, NIH 3T3 cells” was determined as 19 µM.
The like results for `C[C@@H](c1ccccc1)N(CC(N)=O)C(=O)CN(C(=O)CN(CCCCN)C(=O)[C@@H]1CCCN1C(=O)CN(C(=O)CN(CCCCN)C(=O)CN(C(=O)CN(C(=O)CN(CCCCN)C(=O)[C@@H]1CCCN1C(=O)CN(C(=O)CNCCCCN)[C@@H](C)c1ccccc1)[C@@H](C)c1ccccc1)[C@@H](C)c1ccccc1)[C@@H](C)c1ccccc1)[C@@H](C)c1ccccc1` [1-Pro3,9, H-(Nlys-Nspe-L-Pro-Nlys-Nspe-Nspe)2-NH2] (H-[Nlys][Nspe]P[Nlys][Nspe][Nspe][Nlys][Nspe]P[Nlys][Nspe][Nspe]-NH2) were, in that order, 50 µM and 71 µM.
As for `C[C@H](NCC(=O)N(CCCCN)CC(=O)N(CC(=O)N(CCCCN)CC(=O)N(CCCCN)CC(=O)N(CC(=O)N(CC(=O)N(CCCCN)CC(=O)N(CC(=O)N(CCCCN)CC(=O)N(CCCCN)CC(=O)N(CC(N)=O)[C@@H](C)c1ccccc1)[C@@H](C)c1ccccc1)[C@@H](C)c1ccccc1)[C@@H](C)c1ccccc1)[C@@H](C)c1ccccc1)c1ccccc1` [1B12 mer-Nlys4,10, H-(Nspe-Nlys-Nspe-Nlys-Nlys-Nspe)2-NH2] (H-[Nspe][Nlys][Nspe][Nlys][Nlys][Nspe][Nspe][Nlys][Nspe][Nlys][Nlys][Nspe]-NH2), the “E. coli MIC” value with E. coli ATCC 35218 is 50 µM. In addition, in the data set “MTS assay, NIH 3T3 cells”, the midpoint of cytotoxicity, the CC50 at 3 h, lay at 83 µM.
Taken in the same sequence, the figures for `C[C@H](NCC(=O)N(CCCCN)CC(=O)N(CC(=O)N(CCCCN)CC(=O)N(CCCCN)CC(=O)N(CCCCN)CC(=O)N(CC(=O)N(CCCCN)CC(=O)N(CC(=O)N(CCCCN)CC(=O)N(CCCCN)CC(=O)N(CC(=O)N(CC(=O)N(CCCCN)CC(=O)N(CC(N)=O)[C@@H](C)c1ccccc1)[C@@H](C)c1ccccc1)[C@@H](C)c1ccccc1)[C@@H](C)c1ccccc1)[C@@H](C)c1ccccc1)[C@@H](C)c1ccccc1)c1ccccc1` [1B15 mer-Nlys4,6,10, H-Nspe-Nlys-Nspe-Nlys-Nlys-Nlys-Nspe-Nlys-Nspe-Nlys-Nlys-Nspe-Nspe-Nlys-Nspe-NH2] (H-[Nspe][Nlys][Nspe][Nlys][Nlys][Nlys][Nspe][Nlys][Nspe][Nlys][Nlys][Nspe][Nspe][Nlys][Nspe]-NH2) were over 100 µM and 40 µM.
The like results for `C[C@H](NCC(=O)N(CCCCN)CC(=O)N(CC(=O)N(CCCCN)CC(=O)N(CCCCN)CC(=O)N(CC(=O)N(CC(=O)N(CCCCN)CC(=O)N(CC(=O)N(CCCCN)CC(=O)N(CCCCN)CC(=O)N(CC(=O)N(CC(=O)N(CCCCN)CC(=O)N(CC(N)=O)[C@@H](C)c1ccccc1)[C@@H](C)c1ccccc1)[C@@H](C)c1ccccc1)[C@@H](C)c1ccccc1)[C@@H](C)c1ccccc1)[C@@H](C)c1ccccc1)[C@@H](C)c1ccccc1)c1ccccc1` [1B15 mer-Nlys4,10, H-(Nspe-Nlys-Nspe-Nlys-Nlys-Nspe)2-Nspe-Nlys-Nspe-NH2] (H-[Nspe][Nlys][Nspe][Nlys][Nlys][Nspe][Nspe][Nlys][Nspe][Nlys][Nlys][Nspe][Nspe][Nlys][Nspe]-NH2) were, in that order, 50 µM and 16 µM.
In the data set on human erythrocytes, `C[C@H](NCC(=O)N(CCCCN)CC(=O)N(CC(=O)N(CC(=O)N(CCCCN)CC(=O)N(CC(=O)N(CC(=O)N(CCCCN)CC(=O)N(CC(=O)N(CC(=O)N(CCCCN)CC(=O)N(CC(N)=O)[C@@H](C)c1ccccc1)[C@@H](C)c1ccccc1)[C@@H](C)c1ccccc1)[C@@H](C)c1ccccc1)[C@@H](C)c1ccccc1)[C@@H](C)c1ccccc1)[C@@H](C)c1ccccc1)c1ccccc1` [1B, H-(Nspe-Nlys-Nspe)4-NH2] (H-[Nspe][Nlys][Nspe][Nspe][Nlys][Nspe][Nspe][Nlys][Nspe][Nspe][Nlys][Nspe]-NH2) showed an HD10 of 55 µM. Further, the “E. coli MIC” value with E. coli ATCC 35218 is 6.3 µM. For the same molecule, the CC50 at 3 h in “MTS assay, NIH 3T3 cells” amounted to 4.9 µM.
Taken in the same sequence, the figures for `C[C@H](NCC(=O)N(CC(=O)N(CCCCN)CC(=O)N(CC(=O)N(CC(=O)N(CCCCN)CC(=O)N(CC(=O)N(CC(=O)N(CCCCN)CC(=O)N(CC(=O)N(CC(=O)N(CCCCN)CC(N)=O)[C@@H](C)c1ccccc1)[C@@H](C)c1ccccc1)[C@@H](C)c1ccccc1)[C@@H](C)c1ccccc1)[C@@H](C)c1ccccc1)[C@@H](C)c1ccccc1)[C@@H](C)c1ccccc1)c1ccccc1` [1C, H-(Nspe-Nspe-Nlys)4-NH2] (H-[Nspe][Nspe][Nlys][Nspe][Nspe][Nlys][Nspe][Nspe][Nlys][Nspe][Nspe][Nlys]-NH2) were 25 µM, 6.3 µM and 5.6 µM.
As for `C[C@@H](c1ccccc1)N(CC(N)=O)C(=O)CN(CCCCN)C(=O)CN(C(=O)CN(C(=O)CN(CCCCN)C(=O)CN(C(=O)CN(C(=O)CN(CCCCN)C(=O)CN(C(=O)CN(C(=O)CNCCCCN)[C@@H](C)c1ccccc1)[C@@H](C)c1ccccc1)[C@@H](C)c1ccccc1)[C@@H](C)c1ccccc1)[C@@H](C)c1ccccc1)[C@@H](C)c1ccccc1` [111 mer, H-(Nlys-Nspe-Nspe)3-Nlys-Nspe-NH2] (H-[Nlys][Nspe][Nspe][Nlys][Nspe][Nspe][Nlys][Nspe][Nspe][Nlys][Nspe]-NH2), the “E. coli MIC” value in the data set with E. coli ATCC 35218 was 6.3 µM. Also, the CC50 at 3 h in “MTS assay, NIH 3T3 cells” turned out to be 11 µM.
Taken in the same sequence, the figures for `C[C@@H](c1ccccc1)N(CC(=O)N(CCCCN)CC(=O)N(CC(=O)N(CC(=O)N(CCCCN)CC(=O)N(CC(=O)N(CC(=O)N(CCCCN)CC(=O)N(CC(=O)N(CC(=O)N(CCCCN)CC(N)=O)[C@@H](C)c1ccccc1)[C@@H](C)c1ccccc1)[C@@H](C)c1ccccc1)[C@@H](C)c1ccccc1)[C@@H](C)c1ccccc1)[C@@H](C)c1ccccc1)C(=O)CN(C(=O)CNCCCCN)[C@@H](C)c1ccccc1` [113 mer, H-(Nlys-Nspe-Nspe)4-Nlys-NH2] (H-[Nlys][Nspe][Nspe][Nlys][Nspe][Nspe][Nlys][Nspe][Nspe][Nlys][Nspe][Nspe][Nlys]-NH2) were 3.1 µM and 5.6 µM.
